Measured values as given in paper PMC5948259, “A phase I study to assess the mass balance, excretion, and pharmacokinetics of [^14C]-ixazomib, an oral proteasome inhibitor, in patients with advanced solid tumors” (Investigational New Drugs, 2017).
Where “and” joins values, the source holds several entries; their conditions need not be identical. Identical values can stand only once. Like-named read-outs stand apart in the source and are kept apart here.

Tests used:
[1] = design: method as in PMID 25011071; details: patients with MM; cited from earlier work
[2] = design: method as in PMID 28800141; details: cited from earlier work
[3] = cited from earlier work
CYP2C19 = tested on: CYP2C19; design: method as in earlier work; details: 10 μM, exceeding clinical concentrations; cited from earlier work
CYP3A4 = tested on: CYP3A4; design: method as in earlier work; details: 10 μM, exceeding clinical concentrations; cited from earlier work
[4] = design: method as in PMID 28290121; details: population PK estimate; cited from earlier work
relapsed/refractory MM = tested on: relapsed/refractory MM; design: method as in PMID 27119237; details: cited from earlier work
[5] = Safety and tolerability (treatment-emergent adverse events) of ixazomib in patients with advanced solid tumors; type: in vivo, human
Protocol: (§1) The primary objectives of the study were: (1) to assess the mass balance (i.e., cumulative excretion of TRA in urine and feces) of ixazomib following a single oral solution dose of 4.1 mg [^14C]-ixazomib containing approximately 500 nCi of TRA (specific activity of 125 nCi/mg); and (2) to characterize the PK of ixazomib in plasma and urine, and of TRA in plasma and whole blood, after a single oral solution dose of 4.1 mg [^14C]-ixazomib. The secondary objective was to assess the safety and tolerability of multiple-dose ixazomib administration in patients with advanced solid tumors or lymphoma.
(§2) This study was conducted in two parts: a 35-day PK cycle (Part A), followed by repeated 28-day treatment cycles (Part B; Fig. 1). In Part A of the study, patients who met the inclusion and exclusion criteria were admitted to the study clinic on the morning of day 1 for the initial confinement period (days 1–8). Patients received a single 10 mL oral solution dose of 4.1 mg [^14C]-ixazomib containing approximately 500 nCi of TRA, followed by 3 × 10 mL water rinses of the dosing cup. Patients then drank approximately 200 mL of water. Patients returned to the clinic on days 14, 21, 28, and 35 for a 24 h overnight clinic visit. Non-radiolabeled doses of ixazomib (4 mg capsule) were administered on days 14 and 21. After completing their day 35 assessments in Part A, patients were permitted to continue into Part B of the study, where they received non-radiolabeled ixazomib (4 mg capsules) once weekly on days 1, 8, and 15 of each 28-day treatment cycle until disease progression or unacceptable toxicity. All doses of ixazomib were administered on an empty stomach, at least 1 h before or at least 2 h after food.

[6] = tested on: plasma proteins, primarily serum albumin; design: method as in PMID 27121262, PMID 27196567; details: cited from earlier work
CYP2C8 = tested on: CYP2C8; design: method as in earlier work; details: 10 μM, exceeding clinical concentrations; cited from earlier work
advanced solid tumors = assay: Disease status during the study (efficacy, not a formal endpoint); type: in vivo, human; details: for Time on study with long-term stable disease: single-agent ixazomib
Protocol: as §2

[7] = PK of ixazomib in plasma and urine (LC/MS/MS) after a single [14C]-ixazomib oral solution dose, phase I human ADME study Part A; type: in vivo; details: N = 5
Protocol: as §1, §2
(§3) Plasma and whole blood samples were collected at the following time points after ixazomib administration on day 1 of Part A: 0 (predose), 0.5, 1, 2, 3, 4, 8, 24, 48, 72, 96, 120, 144, 168, 312 (day 14), 480 (day 21), 648 (day 28), and 816 (day 35) h post dose. Complete urinary and fecal output was collected continuously during the initial confinement period of Part A (days 1–8). Patients were discharged from the clinic on day 8 and returned on days 14, 21, 28, and 35 for a 24 h overnight visit. Urinary and fecal output was collected during each of these 24 h overnight clinic visits. Patients were also instructed to collect all feces at home for the 24 h period before each overnight clinic visit (days 13, 20, 27, and 34).
Plasma and urine concentrations of ixazomib were measured using a validated liquid chromatography/tandem mass spectrometry (LC/MS/MS) assay with a quantitation range of 0.5–500 ng/mL [16].
The plasma PK of ixazomib was characterized over the first 14 days post dose, while the urine PK and excretion of ixazomib was assessed over the first 7 days post dose. TRA in plasma, whole blood, urine, and feces was assessed over the 35-day post-dose period in Part A. Mass balance of radiolabeled ixazomib was characterized based on the sum of cumulative amounts excreted in feces and urine during the continuous collection interval up to 7 days post dose (day 8, 168 h), and the interpolated amounts excreted in feces and urine between the weekly intermittent collections up to 35 days post dose. For the intervals of time during which urine and feces were not collected, the interval recovery of TRA was estimated as the area under the excretion rate-time curve from the end of the preceding collection interval to the start of the subsequent collection interval. PK parameters were calculated by non-compartmental analysis methods (Phoenix WinNonlin version 6.2, Certara, Princeton, NJ, USA).

CYP2D6 = tested on: CYP2D6; design: method as in earlier work; details: 10 μM, exceeding clinical concentrations; cited from earlier work
CYP1A2 = tested on: CYP1A2; design: method as in earlier work; details: 10 μM, exceeding clinical concentrations; cited from earlier work
[8] = cited from earlier work; remark: listed apart in the source
[9] = Mass balance: recovery of TRA in urine and feces by accelerator mass spectrometry; type: in vivo, human; details: for Total recovery (%) of TRA in urine and feces: days 1–35
Protocol: as §1, §2, §3
To achieve enhanced analytical sensitivity, accelerator mass spectrometry (AMS) was used to determine TRA in urine, feces, whole blood, and plasma samples. […] At the testing facility (Accium BioSciences, Seattle, WA, USA), samples were assigned a unique tracking number, labeled, and stored at −70 °C until further analysis. Samples were subsequently removed from storage, thawed at room temperature, and thoroughly mixed. A known aliquot of each specimen was transferred to a pre-baked quartz tube and a known amount of carbon carrier added. Samples were then dried using vacuum centrifugation and submitted for graphitization; a known amount of each specimen was combusted and then reduced to graphite for measurement of total ^14C in the sample [22]. The resulting iron-graphite mixture was pressed into individual cathodes and submitted for AMS measurement on a National Electrostatics 5.2.1.Corporation (NEC) 1.5SDH Compact AMS System (Middleton, WI) running data acquisition software developed by NEC. Total carbon measurements were performed on a Shimadzu V-Series Total 5.2.2.Organic Carbon Analyzer, which uses oxidative combustion combined with non-dispersive infrared detection for the determination of total carbon concentrations. […]

[10] = design: method as in PMID 28550039; details: 4 mg capsules, relapsed or refractory light-chain amyloidosis, cited from earlier work
CYP2B6 = tested on: CYP2B6; design: method as in earlier work; details: 10 μM, exceeding clinical concentrations; cited from earlier work
CYP2C9 = tested on: CYP2C9; design: method as in earlier work; details: 10 μM, exceeding clinical concentrations; cited from earlier work
[11] = tested on: cytochrome P450 (CYP) and non-CYP proteins; design: method as in earlier work; details: clinically relevant ixazomib concentrations; cited from earlier work

## CC(C)C[C@H](NC(=O)[C@H](Cc1ccccc1)NC(=O)c1cnccn1)B(O)O [bortezomib]
[1]
  Concentrations in whole blood higher than those observed in plasma: 3 fold

## CC(C)C[C@H](NC(=O)CNC(=O)c1cc(Cl)ccc1Cl)B(O)O [ixazomib]
[2]; co-administration of rifampin
  Reduction of plasma exposures (AUC) of ixazomib: 74%
[2]; ketoconazole and clarithromycin
  Effect of strong CYP3A inhibitors on ixazomib PK: no significant effect
[3]; after oral administration
  Median time to first maximum observed concentration (Tmax): approximately 1 h
[3]
  Effect of a high-fat meal on ixazomib absorption: decreases both the rate and extent of ixazomib absorption
  Geometric mean t1/2: 228 h
CYP2C19
  Estimated relative contribution of 2C19 to metabolism: 5%
CYP3A4
  Estimated relative contribution of 3A4 to metabolism: 42%
[4]
  Absolute oral bioavailability: 58%
  Steady-state volume of distribution: 543 L
  Systemic clearance: 1.86 L/h
  Terminal disposition phase half-life (t1/2): 228 h
relapsed/refractory MM; ixazomib (4 mg starting dose) added to lenalidomide and dexamethasone, RRMM patients, versus 14.7 months with placebo
  Median progression-free survival: 20.6 months
relapsed/refractory MM; ixazomib plus lenalidomide and dexamethasone versus placebo plus lenalidomide and dexamethasone, p = 0.012
  Progression-free survival hazard ratio: 0.74
[5]; human, in vivo
  Abdominal pain incidence: 43%
  Constipation incidence: 29%
  Decreased appetite incidence: 43%
  Diarrhea incidence: 71%
  Dry mouth incidence: 14%
  Headache incidence: 43%
  Nausea incidence: 29%
  Patients experiencing a grade 3 AE (influenza and platelet count decreased): two patients
  Patients with a drug-related event: 86%
  Premature discontinuation or dose reduction due to an adverse event: No patients
  Serious adverse event (influenza, deemed unrelated to study drug): One patient
  TEAEs affecting the gastrointestinal system: all patients experiencing an event
  Vomiting incidence: 29%
[5]; safety population N = 7
  Deaths on study: no patients died while on study
[6]
  Bound to plasma proteins: 99%
CYP2C8
  Estimated relative contribution of 2C8 to metabolism: 6%
Advanced solid tumors; 7 patients enrolled
  Patients who developed progressive disease during the study period: 5 patients
Advanced solid tumors; patient with cholangiocarcinoma
  Time on study with long-term stable disease: 162 days
Advanced solid tumors; patient with ovarian cancer
  Time on study with long-term stable disease: 427 days
[7]; human, plasma, po, 4.1 mg, plasma, single 4.1 mg oral solution dose of [14C]-ixazomib, read-out: Geometric mean AUC0–168, ng*h/mL (%CV), ixazomib
  AUC(0-t): 847 ng·h/mL
[7]; human, plasma, po, 4.1 mg, plasma, single 4.1 mg oral solution dose of [14C]-ixazomib, read-out: Geometric mean AUC0–312, ng*h/mL (%CV), ixazomib
  AUC(0-t): 1180 ng·h/mL
[7]; human, urine, po, 4.1 mg, up to 168 h post dose, single 4.1 mg oral solution dose, read-out: Mean urinary recovery, % (SD): administered dose recovered in urine as unchanged drug
  dose excreted: < 3.5%
[7]; human, plasma, single 4.1 mg oral solution dose of [14C]-ixazomib, read-out: Geometric mean Cmax, ng/mL (%CV), ixazomib
  Cmax: 89.1 ng/mL
[7]; human, urine, single 4.1 mg oral solution dose of [14C]-ixazomib, read-out: Geometric mean CLR (renal clearance), L/h (%CV) (converted)
  CL renal: 0.119 L/h
[7]; up to 168 h post dose, single 4.1 mg oral solution dose
  Mean urinary recovery, % (SD): administered dose recovered in urine as unchanged drug: 3.23 (2.13) %
CYP2D6
  Estimated relative contribution of 2D6 to metabolism: 5%
CYP1A2
  Estimated relative contribution of 1A2 to metabolism: 26%
[8]; moderate and severe hepatic impairment
  Higher total systemic exposure of ixazomib: 20%
[8]; population PK analyses
  Effect of mild hepatic impairment (total bilirubin ≤1.5 x ULN) on ixazomib PK: no clinically meaningful effect
  Effect of mild renal impairment (CrCl ≥30 mL/min) on ixazomib PK: no clinically meaningful effect
[8]; severe renal impairment and end-stage renal disease
  Higher total systemic exposure of ixazomib compared with normal renal function: 39%
[8]; severe renal impairment, end-stage renal disease requiring dialysis, moderate or severe hepatic impairment, dedicated phase I studies
  Plasma exposures versus patients with normal organ function: increased
[9]; Mean (SD), N = 5
  Cumulative TRA recovered in feces (days 1–35, %) of administered dose: 21.8% and 21.8 (3.41) %
  Cumulative TRA recovered in urine (days 1–35, %) of administered dose: 62.1% and 62.1 (21.2) %
  Total recovery (%) of TRA in urine and feces: 83.9 (20.7) %
[9]; Patient 001
  Cumulative TRA recovered in feces (days 1–35, %) of administered dose: 18.3%
  Cumulative TRA recovered in urine (days 1–35, %) of administered dose: 40.8%
  Total recovery (%) of TRA in urine and feces: 59.1%
[9]; Patient 002
  Cumulative TRA recovered in feces (days 1–35, %) of administered dose: 18.7%
  Cumulative TRA recovered in urine (days 1–35, %) of administered dose: 96.0%
  Total recovery (%) of TRA in urine and feces: 115%
[9]; Patient 005
  Cumulative TRA recovered in feces (days 1–35, %) of administered dose: 26.4%
  Cumulative TRA recovered in urine (days 1–35, %) of administered dose: 58.5%
  Total recovery (%) of TRA in urine and feces: 84.9%
[9]; Patient 006
  Cumulative TRA recovered in feces (days 1–35, %) of administered dose: 23.7%
  Cumulative TRA recovered in urine (days 1–35, %) of administered dose: 49.3%
  Total recovery (%) of TRA in urine and feces: 73.0%
[9]; Patient 007
  Cumulative TRA recovered in feces (days 1–35, %) of administered dose: 21.9%
  Cumulative TRA recovered in urine (days 1–35, %) of administered dose: 65.7%
  Total recovery (%) of TRA in urine and feces: 87.6%
[9]; after day 28
  Daily increment in excretion of TRA: < 1%
[9]; by day 14 post dose
  Mean cumulative excretion of TRA in urine and feces: 59.0%
[9]; day 28 (plateau of excretion rate)
  Mean total recovery of TRA in urine and feces: 79.4%
[9]; inferred from urinary TRA recovery
  Orally administered dose absorbed into the systemic circulation, suggested by urinary recovery: at least 62%
[10]; day 1
  Whole blood to plasma AUC0–168 ratio for ixazomib alone: 12.7
[10]; day 15
  Whole blood to plasma AUC0–168 ratio for ixazomib alone: 9.86
CYP2B6
  Estimated relative contribution of 2B6 to metabolism: 16%
CYP2C9
  Estimated relative contribution of 2C9 to metabolism: < 1%
[11]
  Metabolic pathways in vitro: metabolized by multiple cytochrome P450 (CYP) and non-CYP proteins with CYP450 enzymes playing only a minor role
